Laboratory results: US20250313879A1, “Fluorescent Probe for Detecting Peptide Bond Hydrolase” (The University of Tokyo, priority 2022, published 2025)
Values after ≈ are worked out from the molar mass of the structure shown.

Key:
dipeptidyl peptidase [1] = assay: Signal/noise ratio of enzymolysate in microdevice; assay type: biochemical; settings: 30 μM probe, 0.2 ng/mL dipeptidyl peptidase, 25° C. 2 hours
Procedure: (§1) For two types of compounds Glu-sSiR (PB206/Example 12) and GP-sHMRG (PB109/Example 7), the signal/noise ratios of the enzymolysates before and after the enzyme reaction in the cuvette and the microdevice were each measured as follows. In the following experiments, the composition of the assay buffer is 100 mM HEPES-NaOH (pH 7.4), 1 mM MgCl2, 1 mM CaCl2), […].
For GP-sHMRG, three kinds of solutions of (iv) only an assay buffer, (v) 30 μM of GP-sHMRG, and (vi) 30 μM of GP-sHMRG and 0.2 ng/mL of dipeptidyl peptidase were prepared, and each solution was added to a microdevice, followed by the addition of sealing oil to enclose the solution in each well. The microdevice in which the solution was enclosed was incubated at 25° C. for 2 hours, and then the fluorescence intensity of each well was measured with a fluorescence microscope. When a difference between the average values of the fluorescence intensities of the respective wells in (v) and (iv) was defined as noise, a difference between the average value of the fluorescence intensities of the wells in which the enzyme was encapsulated in (vi) and the average value of the fluorescence intensities of the respective wells in (iv) was defined as a signal, and a ratio of these values was calculated as the signal/noise ratio of the enzymolysate, the ratio was 287 times (see FIG. 8, panel B). […]

[2] = system: peptidase activity in human plasma sample; assay: Enzyme activity assay in microdevice with human plasma, peptidase probes; assay type: biochemical; settings: 50 μM probe, human plasma 5,000 fold dilution, 25° C. for 2 hours
Procedure: (§2) • 1. GP-sHMRG as a fluorescent probe for detecting peptidase activity was diluted with an assay buffer to 100 μM. The composition of the assay buffer is 100 mM HEPES-NaOH (pH 7.4), 1 mM MgCl2, 1 mM CaCl2, 1 mM DTT, 3 mM Triton X-100. • 2. Next, a human plasma sample was diluted by 2,500 times with the above assay buffer, and mixed in an equal amount with the diluted solution of the probe. At this time, the final concentrations of both are 50 μM for GP-sHMRG and 5,000 fold dilution for the human plasma sample. • 3. The mixed solution of both was then added to a microdevice, followed by the addition of sealing oil to enclose the solution in each well. • 4. The microdevice in which the solution was enclosed was incubated at 25° C. for 2 hours, and then the fluorescence intensity of each well was measured with a fluorescence microscope.
as §2, with “1. Ac-Ala-sHMRG” for “1. GP-sHMRG”, “by 250” for “by 2,500”, “for Ac-Ala-sHMRG” for “for GP-sHMRG”, “and 500” for “and 5,000”, “at 37°” for “at 25°”, “for 4” for “for 2”
• 1. Ac-GP-sSiR as a fluorescent probe for detecting peptidase activity was diluted with an assay buffer to 100 μM. The composition of the assay buffer is 100 mM HEPES-NaOH (pH 7.4), 1 mM MgCl2, 1 mM CaCl2, 1 mM DTT, 3 mM Triton X-100. • 2. […] The microdevice in which the solution was enclosed was incubated at 37° C. for 2 hours, and then the fluorescence intensity of each well was measured with a fluorescence microscope.

DPP4 = molecular target: T1, DPP4 (Homo sapiens, UniProt P27487); assay: Diagnostic experiment of pancreatic cancer utilizing single-molecule enzyme activity of DPP4; assay type: biochemical
T1 construct: from tissue; host or cells: human plasma of pancreatic cancer patients and healthy subjects
Procedure: In order to detect the single-molecule enzyme activity of DPP4, an experiment to verify the availability of the probe GP-sHMRG to which Gly-Pro is bonded as a reaction point to detect a pancreatic cancer biomarker was performed in the following procedures. • 1. GP-sHMRG as a DPP4 detecting probe was diluted with an assay buffer to 100 μM. The composition of the assay buffer is 100 mM HEPES-NaOH (pH 7.4), 1 mM MgCl2, 1 mM CaCl2), 1 mM DTT, 3 mM Triton X-100. • 2. Next, human plasma samples collected from 30 patients with pancreatic cancer and 30 healthy subjects were each diluted by 2,500 times with the above assay buffer, and mixed in an equal amount with the diluted solution of GP-sHMRG. At this time, the final concentrations of both are 50 μM for the GP-sHMRG probe and 5,000 fold dilution for the human plasma sample. • 3. The mixed solution of both was then added to a microdevice, followed by the addition of sealing oil to enclose the solution in each well. • 4. The microdevice in which the solution was enclosed was incubated at 25° C. for 2 hours, and then the fluorescence intensity of each well was measured with a fluorescence microscope. […] The histogram created based on the detected fluorescence intensity of each well is approximated to a curve including two normal distributions.
Specifically, in this example, an ROC curve for determination based on the enzyme activity of DPP4 determined based on the proportion of the high activity group is created, and when a threshold is subtracted at the time when the proportion of the high activity group is 55%, the sensitivity is 37% and the specificity is 97% (the right view of FIG. 4). It is possible to determine pancreatic cancer by such an ROC curve.

dipeptidyl peptidase [3] = assay: Signal/noise ratio of enzymolysate in cuvette; assay type: biochemical; settings: 10 μM probe, 17 ng/mL dipeptidyl peptidase, 25° C. 9 hours, @527 nm
Procedure: as §1
GP-sHMRG was diluted with an assay buffer so as to be 10 μM, then added to a quartz cuvette, and the fluorescence spectrum before the enzyme reaction was measured with a fluorometer (excitation wavelength: 500 nm). Thereafter, dipeptidyl peptidase was added so that the concentration in the solution was 17 ng/mL, the solution was incubated at 25° C. for 9 hours, and then the fluorescence spectrum was measured. The fluorescence spectra before and after the enzyme reaction were compared, the ratio of the values at a wavelength at which the fluorescence intensity was maximized was calculated as the signal/noise ratio of the enzymolysate, the ratio was 481 times (@527 nm) (see FIG. 7B).

[4] = Solubility in sealing oil (hexadecane); assay type: physicochemical; settings: oil or lipid, kinetic from dmso stock, room temperature (25° C.), three tests, average value±standard deviation
Procedure: That is, 1 μL of a 10 mM DMSO solution of the test compound was added with respect to 100 μL of hexadecane as sealing oil, and the mixture was sonicated and suspended at room temperature (25° C.) for 1 minute. Thereafter, the solution was centrifuged for 30 seconds, 50 μL of the supernatant was collected and mixed with 100 μL of methanol, and a compound dissolved in hexadecane was extracted. Thereafter, the methanol solution from which the compound was extracted was analyzed by ultra performance liquid chromatography (UPLC) (eluent: A/B=95/5>5/95, A: 0.1% formic acid-containing 100% H2O, B: 0.1% formic acid-containing 100% CH3CN), and the concentration of the compound in the methanol solution was calculated from the peak area. In the calculation of the solution concentration using the UPLC peak area, solutions having a plurality of concentrations were prepared and measured for each compound, then a calibration curve was prepared (FIG. 5), and the calculation was performed according to the calibration curve.

[5] = threshold: proportion of the high activity group is 55%, pancreatic cancer vs healthy

T1 sequence (P27487 whole entry): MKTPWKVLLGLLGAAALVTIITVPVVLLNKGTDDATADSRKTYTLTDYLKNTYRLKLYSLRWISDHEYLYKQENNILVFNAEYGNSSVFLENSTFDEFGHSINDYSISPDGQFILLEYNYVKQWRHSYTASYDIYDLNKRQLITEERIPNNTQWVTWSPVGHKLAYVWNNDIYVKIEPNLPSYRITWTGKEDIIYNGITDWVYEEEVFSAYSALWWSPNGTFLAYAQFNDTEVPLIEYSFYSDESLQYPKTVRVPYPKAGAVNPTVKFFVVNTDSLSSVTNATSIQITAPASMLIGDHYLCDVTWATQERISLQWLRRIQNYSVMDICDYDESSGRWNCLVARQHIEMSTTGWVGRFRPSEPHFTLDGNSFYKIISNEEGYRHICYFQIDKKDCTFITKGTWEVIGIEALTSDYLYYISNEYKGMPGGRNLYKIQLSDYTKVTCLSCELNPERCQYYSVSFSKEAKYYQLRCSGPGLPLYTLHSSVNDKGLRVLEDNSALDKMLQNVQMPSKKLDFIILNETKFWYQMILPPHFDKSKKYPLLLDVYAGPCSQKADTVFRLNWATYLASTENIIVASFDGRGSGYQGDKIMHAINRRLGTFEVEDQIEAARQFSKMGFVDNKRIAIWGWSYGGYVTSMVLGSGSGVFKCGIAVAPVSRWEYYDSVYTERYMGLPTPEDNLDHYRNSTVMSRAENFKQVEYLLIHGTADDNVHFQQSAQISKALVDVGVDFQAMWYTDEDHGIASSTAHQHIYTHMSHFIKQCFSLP

signal/noise ratio of the enzymolysate (dipeptidyl peptidase [1]): 287 times
ratio of the high activity group to the total of high and low activity groups (DPP4; patients with pancreatic cancer compared with healthy subjects, 50 μM probe, plasma 5,000 fold dilution, 25° C. 2 hours): significant increase
sensitivity (ROC curve, DPP4 activity) (DPP4; [5]): 37%
specificity (ROC curve, DPP4 activity) (DPP4; [5]): 97%
signal/noise ratio of the enzymolysate (dipeptidyl peptidase [3]): 481 times
solubility at 1 min [4]: 0.27 ± 0.026 µM (≈ 0.149 µg/mL)
Compound: NCC(=O)N1CCCC1C(=O)Nc1ccc2c(c1)Oc1cc(N)ccc1C21OCc2cc(S(=O)(=O)O)ccc21 (stereo not shown) [GP-sHMRG]
fluorescence intensity of wells in which the reacting enzyme was enclosed [2]: increase in fluorescence intensity was observed
